Test results: patent US20220112149A1, “DRUG DESIGN METHOD ASSOCIATED WITH NATURAL PRODUCTS, PENTACYCLIC TRITERPENOID COMPOUND, PREPARATION METHOD AND APPLICATIONS THEREOF” (Huazhong Agricultural University, priority 2020, published 2022)

Experiments:
[1] = tested on: Leptin receptor-deficient db/db mice; test: GA-02 in db/db mice, intraperitoneal; type: in vivo; details: 20 mg/kg i.p., 14 days
Experimental: Eight-week-old male ob/ob and db/db mice are adapted to the environment under normal conditions for one week. The animals are grouped according to the body weight and blood glucose, 2 cages in each group, 5 animals in each cage. Mice are acclimatized with the vehicle for 3 days in the experimental group (25 μL DMSO/day) and are injected with drugs by intraperitoneal injection (20 mg/kg; 25 μL per injection). Mice in the control group are injected with the same volume of vehicle. The administration starts from 18:00 every day for 14 consecutive days. The body weight and food intake of mice are recorded every day.

[2] = tested on: ICAM-1 expression in HMEC-1 cells; test: LPS-induced ICAM-1 expression in HMEC-1 cells, flow cytometry; type: cell-based, human
Experimental: (3) Screening candidate molecules with the strongest ICAM-1 inhibitory activity by simulating the physiological model of inflammation that human microvascular endothelial cells (HMEC-1) expressing cell adhesion molecules (ICAM-1) mediate lymphocytes to penetrate blood vessels to infiltrate the damaged tissues. The specific steps are as follows:
(§1) 1) Culture of HMEC-1 cells: HMEC-1 cells are cultured in MCDB131 medium (U.S. Sigma) that contain 10% fetal bovine serum (FBS, Zhejiang Tianhang Biotechnology Co., Ltd.), double antibody (100 U/mL penicillin and 100 μg/mL streptomycin), 1 μg/mL hydrocortisone (Sangon Biotech (Shanghai) Co., Ltd.) and 10 ng/mL human recombinant growth factor (hEGF, Sangon Biotech (Shanghai) Co., Ltd.) at 37° C., 5% CO2, and 100% RH.
2) HMEC-1 cells are inoculated into a 24-well plate, and cultured in a cell incubator at 37° C., 5% CO2, and 100% RH. When the cells grow to 80% abundance, different concentrations of drugs are added for 3 h (1 μM Celastrol as a positive control drug). At the end of treatment, 1 μg/mL LPS is added to activate the NF-κB signaling pathway for 12 hours. After activation, the supernatant medium is discarded, and washed three times with PBS, and 100 μL of 0.25% pancreatin (containing 0.5 mM EDTA) is added to digest in a 37° C. incubator for 3 min. When most of cells are shed, 150 μL of MCDB131 complete medium is added to terminate the digestion, shaken for 3 min, then cells are transferred to a V-shaped 96-well plate (Corning), centrifuged at 4° C., 3000 rpm for 3 min to precipitate cells. Then the supernatant medium is discarded, 100 μL of pH=7.4 buffer A (PBS+0.5% BSA+1 mM MgCl2) is added to each well, to wash once, centrifuged at 4° C., 3000 rpm for 3 min, and the buffer A is aspirated. To each well, 100 μL of PBS solution containing 5% bovine serum albumin is added, and shaken and blocked at 120 rpm for 30 min at room temperature; after blocking, centrifuged at 4° C. and 2000 rpm for 3 min, and the supernatant is discarded, 20 μl of buffer A containing 5 μg/mL of primary antibody anti-ICAM-1 antibody LB-2, shaken and incubated at room temperature at 120 rpm for 1 h, using the buffer A without adding anti-ICAM-1 antibody LB-2 as the negative control. By detecting anti-ICAM-1 fluorescence value by flow cytometry, the expression of ICAM-1 protein in HMEC-1 cells is detected indirectly. Three duplicate wells are established for each concentration. PBS is set as a blank control, 1 uM of Celastrol is set as a positive control, to analyze the inhibitory effect of different concentrations of drugs on the expression level of ICAM-1.
as §1, with “U/ml” for “U/mL”, “μg/ml” for “μg/mL”, “Biotech)” for “Biotech (Shanghai) Co., Ltd.)”, “ng/ml” for “ng/mL”
HMEC-1 cells are inoculated into a 24-well plate, and cultured in a cell incubator at 37° C., 5% CO2, and 100% RH. When the cells grow to 80% abundance, different concentrations of drugs are added for 3 h (1 μM Celastrol as a positive control drug). At the end of treatment, 1 μg/mL LPS is added to activate the NF-κB signaling pathway for 12 hours. After activation, the supernatant medium is discarded, and washed three times with PBS, and 100 μL of 0.25% pancreatin (containing 0.5 mM EDTA) is added to digest in a 37° C. incubator for 3 min. When most of cells are shed, 150 μL of MCDB131 complete medium is added to terminate the digestion, shaken for 3 min, then cells are transferred to a V-shaped 96-well plate (Corning), centrifuged at 4° C., 3000 rpm for 3 min to precipitate cells. Then the supernatant medium is discarded, 100 μL of pH=7.4 buffer A (PBS+0.5% BSA+1 mM MgCl2) is added to each well, to wash once, centrifuged at 4° C., 3000 rpm for 3 min, and the buffer A is aspirated. […]

[3] = tested on: NF-κB signaling in HEK293 cells; test: NF-κB luciferase reporter gene system; type: cell-based
Experimental: FIGS. 10A-10C show the inhibition verification effect chart of GA-02 in Example 5, where FIG. 10A: GA-02 inhibited LPS-induced ICAM-1 expression activity. The inflammatory pathway of HMEC-1 cell was activated by 1 μg/mL LPS, to determine the effect of Celastrol and GA-02 on the expression of ICAM-1 induced by LPS. FIG. 10B: The effect of GA-02 on NF-κB signaling. The NF-κB luciferase reporter plasmid was used to transfect HEK293 cells, and the effects of Celastrol and GA-02 on the NF-κB activity induced by TNF-α were determined; FIG. 10C: qRT-PCR was used to detect mRNA relative expressions of IL-1β, TNF-α, IL-6 and MCP-1.
ICAM-1 is a downstream effector molecule regulated by NF-κB signaling pathway, and NF-κB plays an important role in regulating the expression of ICAM-1 gene. Celastrol can inhibit the activation of the LPS-induced IKK/NF-κB signaling pathway. In order to validate that GA-02 functions through the IKK/NF-κB signaling pathway, we constructed an NF-κB luciferase reporter gene system to validate the inhibitory activity of Celastrol and GA-02 on the luciferase reporter gene. […] In addition, both Celastrol and GA-02 could down-regulate the mRNA transcription levels of inflammatory factors IL-1β, TNF-α, IL-6 and MCP-1 activated by LPS.

[4] = tested on: mildly obese mice of weighing about 30 g; test: GA-02 intragastric administration in mildly obese mice; type: in vivo; details: 40 mg/kg intragastric, two weeks
Experimental: The lean mice of about 25 g, mildly obese mice of weighing about 30 g, and obese mice of about 45 g are given blank vehicle and high-dose GA-02 (40 mg/kg) by intragastric administration, respectively.

## CC1(C(=O)O)CCC2(C)CCC3(C)C(=CC(=O)C4C5(C)C=C(O)C(=O)C(C)(C)C5CCC43C)C2C1 (stereo not shown) [GA-02, 3,11-dicarbonyl-1,12-diene-2-hydroxy-oleanane-30 carboxylic acid]
[1]
  body weight increase: 15%
  food intakes compared with the vehicle control group: do not change significantly
[2]
  anti-inflammatory activity compared with reference compounds: effectively improved compared with 18β-glycyrrhetinic acid
  anti-inflammatory activity, times lower than that of Celastrol: 10 times
[2]; 10 μM
  ICAM-1 inhibitory activity compared with Celastrol: equivalent to 1 μM Celastrol
[2]; different concentrations
  ICAM-1 inhibitory activity, concentration dependence: concentration-dependent ICAM-1 inhibitory activity
[3]; 10 μM
  inhibition of NF-κB reporter fluorescence compared with Celastrol: equivalent to that of 1 μM Celastrol
[3]; different concentrations
  inhibition of the fluorescence intensity, concentration dependence: concentration-dependent manner
[4]
  average daily food intake reduced by: 30%
  body weight reduced by: 16%
